Results reported in ChEMBL document CHEMBL5584359, “Discovery and Preclinical Profile of ALG-055009, a Potent and Selective Thyroid Hormone Receptor Beta (THR-β) Agonist for the Treatment of MASH” (J Med Chem, 2024).
Activity calls are given as the source filed them. The rule behind the calls is not given here.

How the values were obtained:
[1] = target: T1, UDP-glucuronosyltransferase 1A1 (Homo sapiens, UniProt P22309); experiment: Inhibition of human recombinant UGT1A1 in presence of UDPGA cofactor
T1 sequence (P22309 whole entry): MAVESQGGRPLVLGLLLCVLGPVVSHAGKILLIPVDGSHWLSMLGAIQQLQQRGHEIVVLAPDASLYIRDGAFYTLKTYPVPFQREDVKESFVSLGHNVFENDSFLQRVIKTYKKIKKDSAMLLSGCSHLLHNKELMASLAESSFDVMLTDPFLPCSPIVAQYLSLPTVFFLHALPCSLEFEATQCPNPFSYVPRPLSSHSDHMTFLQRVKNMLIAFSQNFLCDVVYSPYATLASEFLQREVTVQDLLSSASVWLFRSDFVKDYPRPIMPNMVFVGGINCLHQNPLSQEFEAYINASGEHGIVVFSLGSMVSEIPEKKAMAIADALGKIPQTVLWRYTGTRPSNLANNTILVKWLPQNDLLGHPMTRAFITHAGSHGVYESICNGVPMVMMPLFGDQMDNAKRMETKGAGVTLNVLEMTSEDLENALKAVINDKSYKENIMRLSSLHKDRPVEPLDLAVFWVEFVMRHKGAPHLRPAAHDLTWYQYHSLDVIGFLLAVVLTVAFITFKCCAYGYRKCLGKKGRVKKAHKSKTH

[2] = target: Voltage-dependent L-type calcium channel subunit alpha-1C (Homo sapiens, UniProt Q13936); experiment: Inhibition of CaV1.2 (unknown origin)
[3] = target: Sodium channel protein type 5 subunit alpha (Homo sapiens, UniProt Q14524); experiment: Inhibition of Nav1.5 (unknown origin)
[4] = target: T2, Solute carrier organic anion transporter family member 1B1 (Homo sapiens, UniProt Q9Y6L6); experiment: Inhibition of OATP1B1 (unknown origin) stably transfected in HEK293 cells at 1 to 100 uM; format: cell-based
T2 sequence (Q9Y6L6 whole entry): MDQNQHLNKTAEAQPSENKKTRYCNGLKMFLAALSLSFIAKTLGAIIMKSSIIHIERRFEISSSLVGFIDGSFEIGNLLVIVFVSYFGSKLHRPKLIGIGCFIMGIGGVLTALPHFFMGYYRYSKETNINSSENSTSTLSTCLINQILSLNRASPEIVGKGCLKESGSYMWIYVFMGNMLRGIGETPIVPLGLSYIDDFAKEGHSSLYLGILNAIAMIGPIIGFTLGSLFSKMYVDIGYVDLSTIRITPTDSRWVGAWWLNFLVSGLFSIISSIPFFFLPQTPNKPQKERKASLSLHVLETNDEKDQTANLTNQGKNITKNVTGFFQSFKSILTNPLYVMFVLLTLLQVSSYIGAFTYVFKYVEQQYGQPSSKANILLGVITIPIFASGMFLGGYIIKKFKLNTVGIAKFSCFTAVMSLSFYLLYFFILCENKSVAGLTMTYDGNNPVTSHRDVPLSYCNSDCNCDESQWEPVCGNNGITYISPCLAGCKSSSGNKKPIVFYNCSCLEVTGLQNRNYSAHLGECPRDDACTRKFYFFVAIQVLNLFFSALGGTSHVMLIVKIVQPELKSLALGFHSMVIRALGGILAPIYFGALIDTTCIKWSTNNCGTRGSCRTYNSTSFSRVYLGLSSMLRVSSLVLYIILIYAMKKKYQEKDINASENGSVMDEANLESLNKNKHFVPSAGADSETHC

[5] = in vitro; conditions: dog, cryopreserved hepatocytes
[6] = Plasma protein binding in human at 2 uM incubated for 4 hrs by rapid equilibrium dialysis
[7] = Effect on CPT1A gene expression in human Huh-7 cells measured for 24 hrs; conditions: Huh-7, 24 h
[8] = in vitro; conditions: cynomolgus monkey, cryopreserved hepatocytes
[9] = Ratio AUC in rat liver to plasma; conditions: other tissue
[10] = system: Rattus norvegicus; experiment: Antihypercholesterolemic activity against high fat diet-induced Sprague-Dawley rat model assessed as change in T3 level at 1.5 mg/kg, po measured at 1 to 24 hrs post dose; format: functional; conditions: time 1-24 hrs
[11] = Cmax in Sprague-Dawley rat at 5 mg/kg, po measured for 24 hrs by LC-MS/MS analysis; format: ADME, organism-based; conditions: in vivo
[12] = in vitro; conditions: human, cryopreserved hepatocytes
[13] = system: Rattus norvegicus; experiment: Antihypercholesterolemic activity against high fat diet-induced Sprague-Dawley rat model assessed as change in LDL-C level at 5 mg/kg, po measured at 1 to 24 hrs post dose; format: functional; conditions: time 1-24 hrs
[14] = Cmax in Sprague-Dawley rat at 1.5 mg/kg, po measured for 24 hrs by LC-MS/MS analysis; format: ADME, organism-based; conditions: in vivo
[15] = Drug concentration in Sprague-Dawley rat liver at 1.5 mg/kg, po measured for 24 hrs by LC-MS/MS analysis; format: ADME, organism-based; conditions: read-out: Ct
[16] = AUC (0 to 24 hrs) in Sprague-Dawley rat at 1.5 mg/kg, po measured for 24 hrs by LC-MS/MS analysis; format: ADME, organism-based; conditions: in vivo
[17] = Plasma protein binding in Beagle dog at 2 uM incubated for 4 hrs by rapid equilibrium dialysis
[18] = Plasma protein binding in cynomolgus monkey at 2 uM incubated for 4 hrs by rapid equilibrium dialysis
[19] = Drug concentration in Sprague-Dawley rat liver at 5 mg/kg, po measured for 24 hrs by LC-MS/MS analysis; format: ADME, organism-based; conditions: read-out: Ct
[20] = system: Rattus norvegicus; experiment: Antihypercholesterolemic activity against high fat diet-induced Sprague-Dawley rat model assessed as change in LDL-C level at 0.15 mg/kg, po measured at 1 to 24 hrs post dose; format: functional; conditions: time 1-24 hrs
[21] = system: Rattus norvegicus; experiment: Antihypercholesterolemic activity against high fat diet-induced Sprague-Dawley rat model assessed as change in T4 level at 0.15 mg/kg, po measured at 1 to 24 hrs post dose; format: functional; conditions: time 1-24 hrs
[22] = system: Rattus norvegicus; experiment: Antihypercholesterolemic activity against high fat diet-induced Sprague-Dawley rat model assessed as change in T4 level at 1.5 mg/kg, po measured at 1 to 24 hrs post dose; format: functional; conditions: time 1-24 hrs
[23] = system: Rattus norvegicus; experiment: Antihypercholesterolemic activity against high fat diet-induced Sprague-Dawley rat model assessed as change in total cholesterol level at 0.15 mg/kg, po measured at 1 to 24 hrs post dose; format: functional; conditions: time 1-24 hrs
[24] = system: Rattus norvegicus; experiment: Antihypercholesterolemic activity against high fat diet-induced Sprague-Dawley rat model assessed as change in LDL-C level at 1.5 mg/kg, po measured at 1 to 24 hrs post dose; format: functional; conditions: time 1-24 hrs
[25] = system: Rattus norvegicus; experiment: Antihypercholesterolemic activity against high fat diet-induced Sprague-Dawley rat model assessed as change in total cholesterol level at 1.5 mg/kg, po measured at 1 to 24 hrs post dose; format: functional; conditions: time 1-24 hrs
[26] = Ratio AUC in mouse liver to plasma; conditions: other tissue
[27] = system: Rattus norvegicus; experiment: Antihypercholesterolemic activity against high fat diet-induced Sprague-Dawley rat model assessed as change in total cholesterol level at 5 mg/kg, po measured at 1 to 24 hrs post dose; format: functional; conditions: time 1-24 hrs
[28] = system: Rattus norvegicus; experiment: Antihypercholesterolemic activity against high fat diet-induced po dosed Sprague-Dawley rat model assessed as reduction in TC level measured after 24 hrs post dose; format: functional, organism-based; conditions: dose 0.15-5 mg/kg
[29] = system: Rattus norvegicus; experiment: Antihypercholesterolemic activity against high fat diet-induced Sprague-Dawley rat model assessed as change in T4 level at 5 mg/kg, po measured at 1 to 24 hrs post dose; format: functional; conditions: time 1-24 hrs
[30] = in vitro; conditions: mouse, cryopreserved hepatocytes
[31] = in vitro; conditions: rat, cryopreserved hepatocytes
[32] = target: CYP2C9 (Homo sapiens, UniProt P11712); experiment: Inhibition of CYP2C9 in human liver microsomes at 10 uM in presence of NADPH relative to control
[33] = Drug concentration in Sprague-Dawley rat plasma at 1.5 mg/kg, po measured for 24 hrs by LC-MS/MS analysis; format: ADME, organism-based
[34] = system: Rattus norvegicus; experiment: Antihypercholesterolemic activity against high fat diet-induced Sprague-Dawley rat model assessed as change in T3 level at 0.15 mg/kg, po measured at 1 to 24 hrs post dose; format: functional; conditions: time 1-24 hrs
[35] = system: Rattus norvegicus; experiment: Antihypercholesterolemic activity against high fat diet-induced Sprague-Dawley rat model assessed as change in T3 level at 5 mg/kg, po measured at 1 to 24 hrs post dose; format: functional; conditions: time 1-24 hrs
[36] = Drug concentration in Sprague-Dawley rat plasma at 5 mg/kg, po measured for 24 hrs by LC-MS/MS analysis; format: ADME, organism-based
[37] = Apparent permeability of the compound from apical to basolateral side in human Caco-2 cells incubated for 1 hr
[38] = target: T3, CYP2C8 (Homo sapiens, UniProt P10632); experiment: Inhibition of CYP2C8 in human liver microsomes at 10 uM in presence of NADPH relative to control
T3 sequence (P10632 whole entry): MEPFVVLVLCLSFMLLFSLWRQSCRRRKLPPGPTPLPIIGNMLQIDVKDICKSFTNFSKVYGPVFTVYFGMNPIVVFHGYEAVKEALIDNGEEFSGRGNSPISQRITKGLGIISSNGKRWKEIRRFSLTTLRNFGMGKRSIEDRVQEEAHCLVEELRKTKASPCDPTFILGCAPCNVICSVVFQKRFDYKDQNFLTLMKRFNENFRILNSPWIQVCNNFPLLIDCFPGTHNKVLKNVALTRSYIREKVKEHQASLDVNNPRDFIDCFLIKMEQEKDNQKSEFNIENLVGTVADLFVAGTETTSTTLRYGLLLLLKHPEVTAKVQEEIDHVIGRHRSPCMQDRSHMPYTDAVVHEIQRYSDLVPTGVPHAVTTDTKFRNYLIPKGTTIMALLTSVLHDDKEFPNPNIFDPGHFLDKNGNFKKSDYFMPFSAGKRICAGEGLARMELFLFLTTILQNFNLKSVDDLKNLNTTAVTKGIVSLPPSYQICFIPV

[39] = Plasma protein binding in Sprague-Dawley rat at 2 uM incubated for 4 hrs by rapid equilibrium dialysis
[40] = species: Rattus norvegicus; experiment: Antihypercholesterolemic activity against high fat diet-induced Sprague-Dawley rat model assessed as minimum effective dose measured after 24 hrs post dose; format: functional; conditions: read-out: MED

Sequence of CYP2C9 (P11712 whole entry): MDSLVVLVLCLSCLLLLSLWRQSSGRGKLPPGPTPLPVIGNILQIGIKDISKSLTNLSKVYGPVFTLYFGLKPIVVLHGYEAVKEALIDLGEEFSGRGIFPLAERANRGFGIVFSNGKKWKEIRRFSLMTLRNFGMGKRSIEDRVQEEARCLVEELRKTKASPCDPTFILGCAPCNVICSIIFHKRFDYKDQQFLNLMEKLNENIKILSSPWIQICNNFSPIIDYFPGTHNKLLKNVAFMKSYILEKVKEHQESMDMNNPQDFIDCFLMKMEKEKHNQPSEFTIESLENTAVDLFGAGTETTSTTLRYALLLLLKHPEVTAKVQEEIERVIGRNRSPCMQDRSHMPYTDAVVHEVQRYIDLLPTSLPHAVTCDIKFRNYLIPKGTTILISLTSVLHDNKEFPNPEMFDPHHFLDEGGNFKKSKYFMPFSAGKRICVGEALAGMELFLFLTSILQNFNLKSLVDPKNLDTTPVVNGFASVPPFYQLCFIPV
Sequence of Sodium channel protein type 5 subunit alpha (Q14524 whole entry): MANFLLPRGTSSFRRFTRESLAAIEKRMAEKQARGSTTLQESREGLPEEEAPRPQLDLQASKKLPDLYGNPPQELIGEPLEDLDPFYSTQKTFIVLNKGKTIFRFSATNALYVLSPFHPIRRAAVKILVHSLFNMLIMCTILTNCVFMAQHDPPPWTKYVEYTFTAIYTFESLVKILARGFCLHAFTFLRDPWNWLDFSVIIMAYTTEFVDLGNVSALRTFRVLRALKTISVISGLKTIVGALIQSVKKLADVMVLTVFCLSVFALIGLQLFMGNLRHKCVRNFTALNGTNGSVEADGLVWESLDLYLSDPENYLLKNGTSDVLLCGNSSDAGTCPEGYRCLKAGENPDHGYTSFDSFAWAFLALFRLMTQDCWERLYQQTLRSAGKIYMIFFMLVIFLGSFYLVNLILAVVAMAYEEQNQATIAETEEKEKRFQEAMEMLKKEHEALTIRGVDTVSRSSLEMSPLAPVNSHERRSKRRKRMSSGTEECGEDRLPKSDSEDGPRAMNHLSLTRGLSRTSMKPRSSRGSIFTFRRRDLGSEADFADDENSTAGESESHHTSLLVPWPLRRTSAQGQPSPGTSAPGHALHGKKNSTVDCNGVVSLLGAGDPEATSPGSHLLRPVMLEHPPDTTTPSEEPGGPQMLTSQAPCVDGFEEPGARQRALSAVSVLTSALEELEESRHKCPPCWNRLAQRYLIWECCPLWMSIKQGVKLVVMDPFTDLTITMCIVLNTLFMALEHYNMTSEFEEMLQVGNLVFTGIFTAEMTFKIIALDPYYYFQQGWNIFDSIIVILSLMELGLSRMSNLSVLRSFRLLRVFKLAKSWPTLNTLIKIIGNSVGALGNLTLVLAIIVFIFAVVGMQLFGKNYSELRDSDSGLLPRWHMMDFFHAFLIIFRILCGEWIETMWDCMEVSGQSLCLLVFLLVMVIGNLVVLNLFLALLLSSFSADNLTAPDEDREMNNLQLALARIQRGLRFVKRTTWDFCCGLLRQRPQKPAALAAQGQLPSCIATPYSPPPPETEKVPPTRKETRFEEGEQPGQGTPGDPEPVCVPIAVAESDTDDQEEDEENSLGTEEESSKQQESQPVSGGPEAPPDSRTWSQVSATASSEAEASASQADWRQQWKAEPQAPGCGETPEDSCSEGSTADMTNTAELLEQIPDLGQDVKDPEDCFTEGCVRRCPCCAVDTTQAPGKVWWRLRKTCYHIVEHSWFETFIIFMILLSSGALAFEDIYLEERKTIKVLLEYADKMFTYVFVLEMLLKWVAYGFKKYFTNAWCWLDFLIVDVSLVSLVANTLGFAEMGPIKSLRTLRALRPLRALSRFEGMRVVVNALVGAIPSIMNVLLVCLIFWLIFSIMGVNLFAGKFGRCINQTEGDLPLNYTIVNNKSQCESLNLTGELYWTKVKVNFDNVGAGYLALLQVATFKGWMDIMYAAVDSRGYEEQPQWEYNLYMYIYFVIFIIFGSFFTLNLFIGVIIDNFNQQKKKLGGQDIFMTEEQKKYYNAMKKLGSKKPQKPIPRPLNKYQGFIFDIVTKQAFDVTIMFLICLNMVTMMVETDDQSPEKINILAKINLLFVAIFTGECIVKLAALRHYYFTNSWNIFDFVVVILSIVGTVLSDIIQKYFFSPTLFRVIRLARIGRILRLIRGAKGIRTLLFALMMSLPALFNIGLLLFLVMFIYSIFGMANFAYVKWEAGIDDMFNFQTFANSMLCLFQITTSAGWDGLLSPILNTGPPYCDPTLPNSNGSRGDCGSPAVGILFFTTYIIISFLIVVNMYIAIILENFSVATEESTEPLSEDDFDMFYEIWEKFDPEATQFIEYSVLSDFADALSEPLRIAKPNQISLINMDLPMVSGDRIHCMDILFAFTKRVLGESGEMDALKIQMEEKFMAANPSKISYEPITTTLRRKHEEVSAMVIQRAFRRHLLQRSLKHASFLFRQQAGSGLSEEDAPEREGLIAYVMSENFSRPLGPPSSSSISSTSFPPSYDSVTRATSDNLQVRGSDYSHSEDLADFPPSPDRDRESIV
Sequence of Voltage-dependent L-type calcium channel subunit alpha-1C (Q13936 whole entry): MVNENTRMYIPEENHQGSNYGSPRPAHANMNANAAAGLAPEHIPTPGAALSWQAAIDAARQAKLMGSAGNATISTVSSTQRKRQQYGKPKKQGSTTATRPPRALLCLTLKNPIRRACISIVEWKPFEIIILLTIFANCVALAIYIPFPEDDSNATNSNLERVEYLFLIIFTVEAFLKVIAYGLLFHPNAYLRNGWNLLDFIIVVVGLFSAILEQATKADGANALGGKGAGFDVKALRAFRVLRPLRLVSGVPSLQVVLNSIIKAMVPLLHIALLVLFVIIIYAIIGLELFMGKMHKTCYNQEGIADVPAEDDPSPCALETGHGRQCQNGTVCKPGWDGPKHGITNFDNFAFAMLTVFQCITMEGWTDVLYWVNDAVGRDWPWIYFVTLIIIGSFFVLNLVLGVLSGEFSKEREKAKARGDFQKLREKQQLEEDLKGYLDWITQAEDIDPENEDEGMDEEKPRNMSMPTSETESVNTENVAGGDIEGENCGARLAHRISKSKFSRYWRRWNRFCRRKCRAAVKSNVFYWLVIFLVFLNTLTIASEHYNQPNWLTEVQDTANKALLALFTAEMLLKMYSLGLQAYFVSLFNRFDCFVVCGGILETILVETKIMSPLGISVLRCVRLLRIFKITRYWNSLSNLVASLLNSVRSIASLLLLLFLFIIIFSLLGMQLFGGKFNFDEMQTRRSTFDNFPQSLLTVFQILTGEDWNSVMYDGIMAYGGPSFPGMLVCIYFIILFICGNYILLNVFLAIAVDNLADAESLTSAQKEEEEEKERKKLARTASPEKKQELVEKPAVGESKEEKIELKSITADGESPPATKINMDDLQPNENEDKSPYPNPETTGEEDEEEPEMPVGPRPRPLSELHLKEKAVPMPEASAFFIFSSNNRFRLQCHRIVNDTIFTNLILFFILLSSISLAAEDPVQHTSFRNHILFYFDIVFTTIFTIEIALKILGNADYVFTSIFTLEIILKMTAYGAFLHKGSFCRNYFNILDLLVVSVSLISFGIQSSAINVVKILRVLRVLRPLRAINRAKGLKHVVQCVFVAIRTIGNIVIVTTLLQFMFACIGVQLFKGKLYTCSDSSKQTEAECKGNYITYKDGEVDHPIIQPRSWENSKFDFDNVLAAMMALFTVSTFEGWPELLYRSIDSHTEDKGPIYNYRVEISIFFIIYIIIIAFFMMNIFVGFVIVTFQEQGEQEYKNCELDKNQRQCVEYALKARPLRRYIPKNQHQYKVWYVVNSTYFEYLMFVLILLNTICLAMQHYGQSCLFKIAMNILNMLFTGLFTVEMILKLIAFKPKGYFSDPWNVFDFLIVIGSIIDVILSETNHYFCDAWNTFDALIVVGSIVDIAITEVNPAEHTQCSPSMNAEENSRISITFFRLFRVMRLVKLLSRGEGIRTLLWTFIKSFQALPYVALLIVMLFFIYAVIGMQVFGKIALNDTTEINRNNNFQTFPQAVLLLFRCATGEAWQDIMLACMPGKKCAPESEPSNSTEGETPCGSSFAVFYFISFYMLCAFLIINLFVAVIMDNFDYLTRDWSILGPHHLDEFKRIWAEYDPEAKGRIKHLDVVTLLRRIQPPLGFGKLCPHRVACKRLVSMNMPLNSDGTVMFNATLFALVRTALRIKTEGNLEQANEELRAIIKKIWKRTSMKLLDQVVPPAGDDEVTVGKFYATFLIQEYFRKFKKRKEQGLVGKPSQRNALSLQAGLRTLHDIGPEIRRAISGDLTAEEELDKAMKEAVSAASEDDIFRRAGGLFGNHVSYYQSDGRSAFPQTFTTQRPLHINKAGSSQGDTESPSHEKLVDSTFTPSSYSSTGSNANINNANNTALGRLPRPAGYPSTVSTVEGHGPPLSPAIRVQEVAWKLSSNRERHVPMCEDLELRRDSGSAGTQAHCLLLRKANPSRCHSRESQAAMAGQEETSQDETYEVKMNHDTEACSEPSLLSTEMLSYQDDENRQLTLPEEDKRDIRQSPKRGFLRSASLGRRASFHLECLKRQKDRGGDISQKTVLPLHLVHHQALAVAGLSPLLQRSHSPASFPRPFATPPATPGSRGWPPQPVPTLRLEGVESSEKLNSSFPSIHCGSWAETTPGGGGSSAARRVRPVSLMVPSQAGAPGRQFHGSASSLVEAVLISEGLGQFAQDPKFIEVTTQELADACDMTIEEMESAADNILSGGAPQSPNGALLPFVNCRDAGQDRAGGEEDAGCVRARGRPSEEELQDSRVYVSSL

SMILES: CC(C)c1cc(Oc2c(Cl)cc(-n3nc(N)c(=O)[nH]c3=O)cc2Cl)n[nH]c1=O
- IC50 [1]: 37.5 µM
- IC50 [2]: > 10 µM
- IC50 [3]: > 10 µM
- IC50 [4]: 23.8 µM

SMILES: CC(C)c1cc(Oc2c(Cl)cc(-n3nc(C#N)c(=O)[nH]c3=O)cc2Cl)n[nH]c1=O [RESMETIROM]
- half-life at 3 h, 1 µM [5]: > 6 h
- fraction unbound at 4 h, 2 µM [6]: 0.003
- EC50 [7]: 0.303 µM
- half-life at 3 h, 1 µM [8]: 1.85 h
- Kp [9]: 6.8
- Activity [10]: 1.7%
- Cmax [11]: 2550 ng/mL
- half-life at 3 h, 1 µM [12]: 3.22 h
- Activity [13]: -44.2%
- Cmax [14]: 969 ng/mL
- concentration at 24 h [15]: 73.6 ng/g
- AUC(0-t) at 24 h [16]: 9410 ng·h/mL
- fraction unbound at 4 h, 2 µM [17]: 0.012
- fraction unbound at 4 h, 2 µM [18]: 0.005
- concentration at 24 h [19]: 613 ng/g
- Activity [20]: -0.8%
- Activity [21]: -18.4%
- Activity [22]: -15.6%
- Activity [23]: 9.5%
- Activity [24]: -34.8%
- Activity [25]: -25.8%
- Kp [26]: 6.3
- Activity [27]: -34.5%
- Activity [28]: Active
- Activity [29]: -15.7%
- half-life at 3 h, 1 µM [30]: > 6 h
- half-life at 3 h, 1 µM [31]: > 6 h
- inhibition at 10 µM [32]: 49%
- concentration at 24 h [33]: 38.2 ng/mL
- Activity [34]: -4.6%
- Activity [35]: -1.9%
- concentration at 24 h [36]: 217 ng/mL
- Papp ([37]; caco-2, 1 h): 0.03 10^-6 cm/s
- inhibition at 10 µM [38]: 91%
- fraction unbound at 4 h, 2 µM [39]: 0.004
- minimal effective dose [40]: 0.15 mg/kg

SMILES: C#Cc1nn(-c2cc(Cl)c(Oc3cc(C(C)C)c(=O)[nH]n3)c(Cl)c2)c(=O)[nH]c1=O
- fraction unbound at 4 h, 2 µM [6]: 0.01
- half-life at 3 h, 1 µM [12]: 1.72 h
- half-life at 3 h, 1 µM [30]: 1.18 h
- half-life at 3 h, 1 µM [31]: 1.43 h
- inhibition at 10 µM [32]: 61%
- Papp A→B at 1 h ([37]; Caco-2): 0.3 ×10⁻⁶ cm/s
- inhibition at 10 µM [38]: 87%
- fraction unbound at 4 h, 2 µM [39]: < 0.002
